Source: patent US10869931B2, “Polyethylene glycol-modified angiogenesis inhibitor HM-1 and application thereof” (NANJING ANJI BIOLOGICAL TECHNOLOGY CO.,LTD, priority 2016, dated 2020)
Where “and” joins values, the source holds several entries; their conditions need not be identical. Identical values can stand only once.

What was measured:
[1] = tested on: mouse spleen lymphocytes; test: ConA-stimulated mouse spleen lymphocyte proliferation (MTT); assay type: cell-based; conditions: 20 μg/mL, ConA 5 μg/mL, 48 h
Description: Tris-NH4Cl was used to break the red blood cells, and the cells were allowed to stand in an ice water bath for 4 min, centrifuged (1000 rpm×5 min), the supernatant was discarded, and the cells were washed twice with sterile PBS. Finally, cells were suspended in RPMI 1640 medium (5 mL) supplemented with 10% calf serum, counted, adjusted to a cell concentration of 5×10^6/mL, and cultured in a 96-well culture plate The test group consisted of blank control group, concanavalin A (ConA) group, dexamethasone (Dex) group (0.02 mg/mL) and mPEG-HM-1 group. […] The cells were cultured in a 37° C. cell culture chamber for 48 h. After the completion of the culture, 20 μL of MTT was added to each well, and the culture was continued for 4 h. Finally, all the solutions in each well were discarded, 100 μL of DMSO was added to each well, and the mixture was shaken and detected by a microplate reader OD value at 570 nm, 5 parallels per hole.

[2] = tested on: IL-1β production by mouse peritoneal macrophages; test: IL-1β production by mouse peritoneal macrophages (ELISA); assay type: cell-based; conditions: 20 μg/mL, 48 h
Description: (1) IL-1β production: mice were intraperitoneally injected with 1 mL of broth (containing 6%) starch, and three days later, the mouse peritoneal macrophages were aseptically taken, washed twice with 1640 medium, and the cell concentration was adjusted to 2×10^6 cells/mL, inject into a 24-well culture plate, 1 mL per well, incubate for 3 hours in a cell culture incubator, shake once every 30 minutes, and allow the cells to fully adhere. Then, it was washed twice with the culture solution to remove unattached cells. The blank group was added with PBS, the positive group was added with the positive drug dexamethasone (Dex), the model group was not administered, to the experimental group was added low, medium and high three concentrations of mPEG-HM-1, and the culture was continued for 48 hours after the administration, 1000 r/min. Centrifuge for 15 min. The supernatant was taken as a sample for testing activity of IL-1β.
(2) Determination of IL-1β content: using R&D mouse IL-1β enzyme-linked immunosorbent assay kit, according to the kit instructions as follows: respectively, the tested samples and different concentrations of standard products, sealed with sealing tape the reaction well and incubated at 37° C. for 90 min; the plate was washed four times; the biotinylated antibody working solution (100 μL/well) was added, and the reaction well was sealed with sealing paper, incubated at 37° c. for 60 min; the plate was washed four times; Add the enzyme conjugate working solution (100 μL/well), seal the reaction well with sealing paper, incubate at 37° C. for 30 min; wash the plate four times; add color reagent (100 μL/well), incubate at 37° C. 10-20 min, add stop solution (100 μL/well), mix and measure OD450 value.

[3] = tested on: Thyroid cancer tumor cells; test: MTT proliferation inhibition, thyroid cancer cells; assay type: cell-based, human; set-up: concentration or dose not given beside the values; conditions: 48 h
Description: (§1) The activity of mPEG-HM-1 to inhibit the growth of various tumor cells was examined by MTT assay. The tumor cells were cultured to a concentration of 90% or more in a 37° C., 5% CO2 incubator and collected by trypsinization. The cells were resuspended in the culture medium and counted under a microscope to adjust the cell concentration to 2×10^4 cells/mL, the cell suspension was inoculated into a 96-well plate at 100 μL/well and incubated overnight at 37° C. in a 5% CO2 incubator. mPEG-HM-1 was diluted with the culture solution to each predetermined concentration. Docetaxel is diluted to the final concentration with the culture medium. After the cells were fully attached, each dilution was added to a 96-well plate (100 μL/well). The mPEG-HM-1 dilution was added as a drug-administered group, and docetaxel was added as a positive control group, and a culture solution without any drug was used as a negative control group. Incubate for 48 h at 37° C. in a 5% CO2 incubator. 5 mg/mL of MTT was added to a 96-well plate at 20 μL per well, and incubation was continued for 4 hours. The medium was aspirated, dissolved in 150 μL of DMSO per well, and gently mixed by shaking for 10 min. The absorbance was measured at a measurement wavelength of 570 nm and a reference wavelength of 630 nm using a microplate reader, and the rate of growth inhibition (proliferation inhibition, PI) was calculated. The formula is as follows: PI (%)=1−administration group/negative group
(§2) The test was repeated 3 times independently, and the results obtained by the test were expressed as mean±SD, and the test results are shown in Table 15 to Table 18.

[4] = tested on: Breast cancer tumor cells; test: MTT proliferation inhibition, breast cancer cells; assay type: cell-based, human; set-up: concentration or dose not given beside the values; conditions: 48 h
Description: as §1, §2

[5] = tested on: Colorectal cancer tumor cells; test: MTT proliferation inhibition, colorectal cancer cells; assay type: cell-based, human; set-up: concentration or dose not given beside the values; conditions: 48 h
Description: as §1, §2

[6] = tested on: Kidney cancer tumor cells; test: MTT proliferation inhibition, kidney cancer cells; assay type: cell-based, human; set-up: concentration or dose not given beside the values; conditions: 48 h
Description: as §1, §2

[7] = tested on: Bladder Cancer tumor cells; test: MTT proliferation inhibition, bladder cancer cells; assay type: cell-based, human; set-up: concentration or dose not given beside the values; conditions: 48 h
Description: as §1, §2

[8] = tested on: Melanoma tumor cells; test: MTT proliferation inhibition, melanoma cells; assay type: cell-based, human; set-up: concentration or dose not given beside the values; conditions: 48 h
Description: as §1, §2

[9] = tested on: Pancreatic cancer tumor cells; test: MTT proliferation inhibition, pancreatic cancer cells; assay type: cell-based, human; set-up: concentration or dose not given beside the values; conditions: 48 h
Description: as §1, §2

[10] = tested on: Esophageal cancer tumor cells; test: MTT proliferation inhibition, esophageal cancer cells; assay type: cell-based, human; set-up: concentration or dose not given beside the values; conditions: 48 h
Description: as §1, §2

[11] = tested on: Hemangioma tumor cells; test: MTT proliferation inhibition, hemangioma cells; assay type: cell-based, human; set-up: concentration or dose not given beside the values; conditions: 48 h
Description: as §1, §2

[12] = tested on: Prostate cancer tumor cells; test: MTT proliferation inhibition, prostate cancer cells; assay type: cell-based, human; set-up: concentration or dose not given beside the values; conditions: 48 h
Description: as §1, §2

[13] = tested on: sarcoma tumor cells; test: MTT proliferation inhibition, sarcoma cells; assay type: cell-based, human; set-up: concentration or dose not given beside the values; conditions: 48 h
Description: as §1, §2

[14] = tested on: Head and neck cancer tumor cells; test: MTT proliferation inhibition, head and neck cancer cells; assay type: cell-based, human; set-up: concentration or dose not given beside the values; conditions: 48 h
Description: as §1, §2

[15] = tested on: Liver cancer tumor cells; test: MTT proliferation inhibition, liver cancer cells; assay type: cell-based, human; set-up: concentration or dose not given beside the values; conditions: 48 h
Description: as §1, §2

[16] = tested on: Gastric cancer tumor cells; test: MTT proliferation inhibition, gastric cancer cells; assay type: cell-based, human; set-up: concentration or dose not given beside the values; conditions: 48 h
Description: as §1, §2

[17] = tested on: Uterine cancer tumor cells; test: MTT proliferation inhibition, uterine cancer cells; assay type: cell-based, human; set-up: concentration or dose not given beside the values; conditions: 48 h
Description: as §1, §2

[18] = tested on: Ovarian cancer tumor cells; test: MTT proliferation inhibition, ovarian cancer cells; assay type: cell-based, human; set-up: concentration or dose not given beside the values; conditions: 48 h
Description: as §1, §2

[19] = tested on: Brain tumor cells; test: MTT proliferation inhibition, brain tumor cells; assay type: cell-based, human; set-up: concentration or dose not given beside the values; conditions: 48 h
Description: as §1, §2

[20] = tested on: Lung cancer tumor cells; test: MTT proliferation inhibition, lung cancer cells; assay type: cell-based, human; set-up: concentration or dose not given beside the values; conditions: 48 h
Description: as §1, §2

[21] = tested on: Cervical cancer tumor cells; test: MTT proliferation inhibition, cervical cancer cells; assay type: cell-based, human; set-up: concentration or dose not given beside the values; conditions: 48 h
Description: as §1, §2

C[C@@H]1C[C@H]2[C@@H]3CCC4=CC(=O)C=C[C@]4(C)[C@@]3(F)[C@@H](O)C[C@]2(C)[C@@]1(O)C(=O)CO [Dex, dexamethasone, reference compound]
A570 nm/A630 nm [1]: 0.3809 ± 0.1036 and 0.3832 ± 0.1042 and 0.3715 ± 0.1266 and 0.3905 ± 0.1094
Inhibition Rate of spleen lymphocyte proliferation [1]: 44.66% and 45.92% and 43.72%
inhibition at 20 µg/mL ([1]; Mus musculus, Lymphocyte, read-out: Inhibition Rate of spleen lymphocyte proliferation): 44.8%
IL-1β [2]: 361.03 ± 18.27 pg/mL and 368.23 ± 18.27 pg/mL and 361.45 ± 19.17 pg/mL and 359.92 ± 19.17 pg/mL
Inhibition Rate of IL-1β production [2]: 60.24% and 60.58% and 60.97%
inhibition at 20 µg/mL ([2]; Mus musculus, Peritoneal macrophage, read-out: Inhibition Rate of IL-1β production): 61.5%

CC(=O)O[C@@]12CO[C@@H]1C[C@H](O)[C@@]1(C)C(=O)[C@H](O)C3=C(C)[C@@H](OC(=O)[C@H](O)[C@@H](NC(=O)OC(C)(C)C)c4ccccc4)C[C@@](O)([C@@H](OC(=O)c4ccccc4)[C@H]21)C3(C)C [Docetaxel, reference compound]
rate of growth inhibition [3]: 56.21 ± 14.28%
rate of growth inhibition [4]: 65.31 ± 21.44%
rate of growth inhibition [5]: 74.59 ± 20.33%
rate of growth inhibition [6]: 72.93 ± 18.31%
rate of growth inhibition [7]: 46.72 ± 13.65%
rate of growth inhibition [8]: 83.49 ± 23.27%
rate of growth inhibition [9]: 71.13 ± 20.13%
rate of growth inhibition [10]: 60.18 ± 17.02%
rate of growth inhibition [11]: 56.92 ± 16.76%
rate of growth inhibition [12]: 45.62 ± 14.03%
rate of growth inhibition [13]: 51.31 ± 10.49%
rate of growth inhibition [14]: 49.23 ± 10.01%
rate of growth inhibition [15]: 66.70 ± 17.25%
rate of growth inhibition [16]: 77.34 ± 22.18%
rate of growth inhibition [17]: 80.25 ± 22.18%
rate of growth inhibition [18]: 85.12 ± 19.39%
rate of growth inhibition [19]: 59.23 ± 16.21%
rate of growth inhibition [20]: 68.23 ± 18.32%
rate of growth inhibition [21]: 80.21 ± 19.54%
